Test results taken from publication PMC10799292, “The Role of β-Defensin 1 Against Porphyromonas gingivalis Lipopolysaccharide-Mediated Inflammation in the THP-1 Cell Line” (Cureus, 2023).
No end group written: not given here.

Experiments:
[1] = test system: THP-1 differentiated macrophage cell line; experiment: Cytotoxicity evaluation of Pg-LPS by MTT method; type: cell-based, human; conditions: 24 h, 0.25-4 µg/mL
Description: The THP-1 cell line was cultured in DMEM and supplemented with 10% FBS, sodium bicarbonate, L-glutamine, and an antibiotic solution containing penicillin (100 U/mL), amphotericin B (2.5 µg/mL), and streptomycin (100 µg/mL). The cells were maintained in a 5% humidified CO2 incubator (NBS Eppendorf, Germany) at 37°C. To induce differentiation into macrophages, the THP-1 cell line was treated with 25 ng/mL phorbol 12-myristate 13-acetate (PMA) (cat. 91585, Sigma-Aldrich, USA) and incubated for 48 hours. Following incubation, the cells were seeded in a 96-well culture plate at a density of 5x10^4 cells/well and incubated for 24 hours in a humidified 5% CO2 incubator at 37°C.
After incubation of 24 hours, triplicate additions of Pg-LPS in various concentrations (0.25 µg, 0.5 µg, 1 µg, 2 µg, and 4 µg/mL) were done appropriately. […] The inhibitory concentration (IC50) value of Pg-LPS was determined by the ED50 software.
Inverted phase contrast microscopy (IPCM) using an Olympus CKX41 microscope (Olympus, Japan) equipped with an Optika Pro5 CCD camera (Optika, Italy) was utilized to directly observe the cells. Cell viability was determined using the MTT (3-(4,5-Dimethylthiazol-2-yl)-2,5-diphenyltetrazolium bromide) assay (Sigma, M-5655). […] The absorbance of this colored solution can be quantified by measuring at approximately 570 nm using a spectrophotometer. […]

[2] = test system: THP-1 cells; experiment: Intracellular ROS generation, DCFDA assay; type: cell-based, human; conditions: Pg-LPS 1 µg/mL alone; DCFDA 30 min, ex 470 nm, em 635 nm; untreated control 2379
Description: Untreated control and Pg-LPS treated wells were also maintained. The cells were washed with PBS, and 50 µl of Dichlorodihydrofluorescein diacetate (DCFDA) was added, followed by incubation for 30 minutes. After incubation, excess dye was removed with PBS, and fluorescence was observed using a fluorescent microscope (Olympus CKX41 with Optika Pro5 CCD camera) and quantified with a fluorimeter at 470 nm excitation and emission at […] (Qubit 3.0, Life Technologies, USA), displaying the results in arbitrary units (AU).
The effect of β-defensin 1 on ROS generation in THP-1 cells stimulated with Pg-LPS was studied. DCFDA, a fluorogenic dye, measures hydroxyl, peroxyl, and other ROS activities within the cell. After entering the cell, DCFDA is deacetylated by cellular esterases into a non-fluorescent compound. This nonfluorescent chemical is then oxidized by ROS into […] (DCF), which, upon excitation with a blue filter, emits green fluorescence. When THP-1 cells were stimulated with Pg-LPS, there was a considerable increase in fluorescence, which decreased upon treatment with β-defensin 1, as shown in Figure 7 and Table 2.

[3] = test system: THP-1 cells; experiment: Cell cycle distribution by flow cytometry; type: cell-based, human; conditions: Pg-LPS alone, compared to untreated control cells
Description: Untreated control and Pg-LPS stimulated cells were also maintained. The MUSE Cell Cycle Kit was added, and the manufacturer's instructions were followed.

[4] = test system: THP-1 cells; experiment: Apoptosis by flow cytometry (Annexin V & Dead Cell); type: cell-based, human; conditions: Pg-LPS 1 µg/mL alone
Description: Untreated control and Pg-LPS treated wells were also maintained. To the tubes, 100 μL of the Muse™ Annexin V & Dead Cell Reagents were added separately. The tubes were completely mixed by pipetting up and down or spinning at a medium speed for three to five seconds, followed by 20 minutes of incubation in the dark at room temperature. The cells were examined with a Flow Cytometer, gated against untreated control cells, and evaluated for apoptosis with the Muse FCS 3.0 software.
The Muse Annexin V & Dead Cell Kit is a method to analyze cells in various stages of apoptosis, where fluorescently labeled Annexin V binds to phosphatidylserine (PS), which translocates to the outer surface of the cell membrane upon the onset of apoptosis. 7-AAD is excluded from live and healthy cells and permeates late-stage apoptotic and dead cells. […] The result is depicted in Figure 9.

[5] = test system: phagocytosis; conditions: via its effect on the cytoskeletal network; cited from earlier work
Source text: Two important functions of macrophages are to eliminate pathogens through phagocytosis and apoptosis of inflammatory cells and their subsequent clearance (efferocytosis). The present study analyzed the role of AMP, β-defensin 1, in Pg-LPS-stimulated THP-1 differentiated macrophage cells.

[6] = test system: RAW264.7 cells; conditions: stimulated with LPS; cited from earlier work
Source text: (§1) One of the primary virulence factors of periodontitis, Pg-LPS, targets TLR4, which activates the NF-kB signaling pathway and triggers the secretion of inflammatory cytokines such as TNFα, IL-6, and chemokines, recruiting monocytes/macrophages to the site of infection. […] Cecropin A, a novel 37-residue cecropin-like antimicrobial ...

[7] = directly interacting with LPS; cited from earlier work
Source text: as §1

[8] = test system: endothelial cells; conditions: cited from earlier work
Source text: as §1

Q: With “Porphyromonas gingivalis lipopolysaccharide [Pg-LPS]” as the substance, how does the “cytotoxicity (in words)” value [1] read?
A: The value was “dose-dependent cytotoxicity”.

Q: And the “ROS generation, Fluorescence intensity” value [2]?
A: The value was 10743.55 AU.

Q: And the “G0/G1 phase of the cell cycle (in words)” value [3]?
A: Its value is “increase in the G0/G1 phase of the cell cycle”.

Q: What about the live cells ([4]; untreated control 87.25%) of the same substance?
A: Its live cells is 74.40%.

Q: And the “necrotic effect / Dead” value ([4]; untreated control Dead 3.65 %)?
A: The value was 22.85%.

Q: And the effect on phagocytosis [5]?
A: Its effect on phagocytosis is “suppresses phagocytosis”.

Q: Which anti-inflammatory activities [6] does the source give for “Cecropin A: a novel 37-residue cecropin-like antimicrobial peptide isolated from a cecropia moth (KWKLFKKIEKVGQNIRDGIIKAGPAVAVVGQATQIAK; ends and bridges not checked; UniProt P01507 27-63, looked up)” here?
A: The anti-inflammatory activities was “showed anti-inflammatory activities”.

Q: What does the source list for cathelicidin?
A: LPS-neutralizing effect [7]: potent LPS-neutralizing effect; LPS-induced apoptosis [8]: reducing LPS-induced apoptosis in endothelial cells
